Values after ≈ are worked out from the molar mass of the structure shown. Values joined by “and” are separate entries in the source; they are usually repeats but may differ in a detail not shown here. Identical values can stand only once. Like-named read-outs stand apart in the source and are kept apart here.
Tests used:
[1] = Kinetic solubility assay in PBS pH 7.4; type: physicochemical; settings: kinetic from dmso stock, 1% DMSO; for solubility kinetic at 2 h: 25 °C, pH 7.4, aqueous buffer, PBS pH 7.4, 200 μM test conc, 2 h at 25 °C; for solubility at 2 h: aqueous buffer, PBS pH 7.4, 200 µM, 2 hours at 25°C
Protocol: The plate was incubated for 2 h at 25 °C. The precipitates on the incubation plate were removed by filtration and the filtrates were quantified by LC-MS/MS. Calibration curves were prepared for each compound by using 5–6 points. Samples were analyzed by UV–vis.

[2] = system: Leishmania braziliensis promastigotes; assay: Leishmanicidal activity, promastigote growth (SYBR Green, 72 h); type: cell-based, Leishmania (V.) braziliensis (MHOM/BR/1975/M2904); settings: L. braziliensis promastigotes, max 200 μM
Method in brief: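 Cultures at 4 × 10^6 parasites/mL were exposed 72 h to serially decreasing compound levels, top 200 μM, with final DMSO 0.5% and medium-only control.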

in vitro [3] = settings: microsomes; for microsomal CLint at 1 μM / remaining at 5 min, 1 μM: male, CD1, mouse; for remaining at 5 min, 1 μM / remaining at 10 min, 1 µM / remaining at 20 min, 1 µM / remaining at 0.5 h, 1 µM / remaining at 1 h, 1 µM: pH 7.4, % Remaining; for remaining at 5 min, 1 μM: T=5 min; for remaining at 10 min, 1 µM / remaining at 20 min, 1 µM / remaining at 0.5 h, 1 µM / remaining at 1 h, 1 µM: mouse; for remaining at 10 min, 1 µM: T=10 min; for remaining at 20 min, 1 µM: T=20 min; for remaining at 0.5 h, 1 µM: T=30 min, 30 min; for remaining at 1 h, 1 µM: T=60 min, 60 min
HsDHODH = molecular target: T1, HsDHODH (Homo sapiens, UniProt Q02127); assay: Selectivity assay: HsDHODH single-dose inhibition (DCIP reduction); type: biochemical
T1 construct: made in house
T1 sequence (Q02127 whole entry): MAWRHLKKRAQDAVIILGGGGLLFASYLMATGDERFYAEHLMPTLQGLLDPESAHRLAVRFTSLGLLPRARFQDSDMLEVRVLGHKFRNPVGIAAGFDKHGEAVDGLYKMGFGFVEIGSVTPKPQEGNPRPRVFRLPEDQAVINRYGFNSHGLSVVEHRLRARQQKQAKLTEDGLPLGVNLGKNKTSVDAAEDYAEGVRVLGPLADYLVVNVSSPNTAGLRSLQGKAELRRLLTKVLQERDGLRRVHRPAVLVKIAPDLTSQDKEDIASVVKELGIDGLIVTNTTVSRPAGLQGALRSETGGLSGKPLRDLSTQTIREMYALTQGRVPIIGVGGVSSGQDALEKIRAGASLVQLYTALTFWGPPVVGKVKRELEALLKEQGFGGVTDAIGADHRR
Method in brief: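 Single-dose format, run in triplicate: His-purified HsDHODH (20 nM final) started by adding reaction buffer, absorbance at 610 nm (DCIP) recorded for 60 s at 3-s intervals. Initial rates converted to percent of no-compound control activity.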

in vitro [4] = settings: for recovery at 6 h, 10 µM / Papp: PAMPA; for recovery at 6 h, 10 µM / Avg Log Pe (cm/sec) / Avg Pe / Pe (nm/sec) n=1 / % Recovery n=1 / Pe (nm/sec) n=2 / % Recovery n=2: PBS pH 7.4/7.4, 6h at room temperature; for Papp: pH 7.4, permeability, PBS pH 7.4, 10 μM, 6 h; for recovery at 6 h, 10 µM / Avg Log Pe (cm/sec) / Avg Pe / LogPe (cm/sec) n1 / LogPe (cm/sec) n2 / % Recovery n=1 / % Recovery n=2: 10µM; for LogPe (cm/sec) n1: replicate n1, calculation section; for LogPe (cm/sec) n1 / LogPe (cm/sec) n2: PBS pH 7.4/7.4, 6h; for LogPe (cm/sec) n2: replicate n2, calculation section; for Pe (nm/sec) n=1 / % Recovery n=1: replicate n=1; for Pe (nm/sec) n=1 / Pe (nm/sec) n=2: 10µM (5% DMSO), LC-MS/MS; for Pe (nm/sec) n=2 / % Recovery n=2: replicate n=2
Protocol: Solutions of the compounds were prepared in duplicate by diluting the stock solutions (10 mM) in phosphate buffered saline (PBS) pH 7.4 at a final concentration of 10 μM (5% DMSO). The solutions diluted in PBS pH 7.4 were then added to the donor portion of the plate (300 μL/well), while in the acceptor portion PBS pH 7.4 (200 μL/well) was added. The two portions of the plate were then coupled, and the system was incubated for 6 h at room temperature. Samples of the initial donor solution (T0) were collected at the beginning (T0) and stored at 5 °C. The final concentrations of compounds in the donor, acceptor and T0 wells were quantified by LC-MS/MS.

[5] = for Calculated T-half (min), Average / Calculated T-half (min), n=1 / Calculated T-half (min), n=2: mouse liver microsomes (CD1 male), 0.4 mg/ml protein, test conc 1 µM; for Calculated T-half (min), Average: average of n=1 and n=2; for Calculated T-half (min), n=1: replicate n=1; for Calculated T-half (min), n=2: replicate n=2; for Modified T-half (min), Average / Remarks (mouse microsomal stability study) / mouse liver microsomes T-half / Raw data: analyte peak area, T=0 / Raw data: analyte peak area, T=5 / Raw data: analyte peak area, T=10 / Raw data: analyte peak area, T=20 / Raw data: analyte peak area, T=30 / Raw data: analyte peak area, T=60: mouse liver microsomes; for Modified T-half (min), Average / Remarks (mouse microsomal stability study): 0.4 mg/ml, 1 µM; for Modified T-half (min), Average: limited to T Half range 3.00 - […]; for Remarks (mouse microsomal stability study): NCF = no cofactor control; for mouse liver microsomes T-half: NADPH, 1 μM; for Raw data: analyte peak area, T=0: 0 min; for Raw data: analyte peak area, T=0 / Raw data: analyte peak area, T=5 / Raw data: analyte peak area, T=10 / Raw data: analyte peak area, T=20 / Raw data: analyte peak area, T=30 / Raw data: analyte peak area, T=60: raw LC-MS area; for Raw data: analyte peak area, T=5: 5 min; for Raw data: analyte peak area, T=10: 10 min; for Raw data: analyte peak area, T=20: 20 min; for Raw data: analyte peak area, T=30: 30 min; for Raw data: analyte peak area, T=60: 60 min
[6] = Cell viability / cytotoxicity assay (PrestoBlue, 72 h); type: cell-based; settings: human; THP-1 cell line, 72 h, max 200 μM; read-out: CC50
Method in brief: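 Viability was measured with PrestoBlue fluorescence (560/590 nm, 2 h) after 72 h compound exposure at 37 °C. Test concentrations descended from 200 μM. The THP-1 monocytes had first been differentiated with 150 ng/mL phorbol myristate acetate for 48 h, then rested 24 h.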

[7] = Mouse liver microsome stability in the absence of cofactors (NCF); settings: 60 min, no cofactor (NCF); for remaining at 1 h, 1 µM: mouse, microsomes, pH 7.4, % Remaining, T=60 NCF; for Raw data: analyte peak area, T=60 NCF: mouse liver microsomes, raw LC-MS area
[8] = n=1, mouse liver microsomes, n=1
[9] = n=2, mouse liver microsomes, n=2
[10] = pH 7.4, mouse liver microsomes CLint, app, mouse liver microsomes, NADPH, 1 μM
[11] = read-out: Single dose (0h) % activity
[12] = read-out: Single dose (4h) % activity
[13] = pH 7.4, % Recovery n=1, replicate n=1
[14] = pH 7.4, % Recovery n=2, replicate n=2
[15] = pH 7.4, Avg % Recovery, average of n=2

## O=C1NC(=O)C(=Cc2ccc(-c3ccccc3F)[nH]2)C(=O)N1 [2h, 5-((5-(2-Fluorophenyl)-1H-pyrrol-2-yl)methylene)pyrimidine-2,4,6(1H,3H,5H)-trione]
[1]
  solubility kinetic at 2 h: 4.63 µM (≈ 1.39 µg/mL)
  solubility at 2 h: 1.6 µg/mL (≈ 5.35 µM)
[2]
  EC50: 5 ± 2 µM
[2]; Leishmania braziliensis
  EC50: 5.4 to 23 µM
In vitro [3]; pH 7.4
  microsomal CLint at 1 μM: > 578 µL/min/mg
In vitro [3]; [8]
  remaining at 5 min, 1 μM: 5.9%
  remaining at 10 min, 1 µM: 1.7%
  remaining at 20 min, 1 µM: 0.7%
  remaining at 0.5 h, 1 µM: 0.554%
  remaining at 1 h, 1 µM: 0.158%
In vitro [3]; [9]
  remaining at 5 min, 1 μM: 5.1%
  remaining at 10 min, 1 µM: 1.7%
  remaining at 20 min, 1 µM: 0.7%
  remaining at 0.5 h, 1 µM: 0.554%
  remaining at 1 h, 1 µM: 0.16%
In vitro [3]; [10]
  microsomal CLint at 1 μM: > 578 µL/min/mg
HsDHODH; [11]
  activity at 100 µM: 100 ± 11%
HsDHODH; [12]
  activity at 100 µM: 71 ± 7%
In vitro [4]; [13]
  recovery at 6 h, 10 µM: 38%
In vitro [4]; [14]
  recovery at 6 h, 10 µM: 43.3%
In vitro [4]; [15]
  recovery at 6 h, 10 µM: 40.6%
In vitro [4]
  Papp: 1.54 ×10⁻⁶ cm/s
  LogPe (cm/sec) n1: -5.97 cm/sec
  LogPe (cm/sec) n2: -5.70 cm/sec
  Pe (nm/sec) n=1: 10.8 nm/s and 10.80 nm/s
  % Recovery n=1: 37.96%
  Pe (nm/sec) n=2: 20.0 nm/s and 19.97 nm/s
  % Recovery n=2: 43.27%
In vitro [4]; average of n=2
  Avg Log Pe (cm/sec): -5.8 cm/sec and -5.83 cm/sec
  Avg Pe: 15.4 nm/s and 15.39 nm/s
[5]
  Calculated T-half (min), Average: 1.7 min
  Calculated T-half (min), n=1: 1.70 min and 1.7 min
  Calculated T-half (min), n=2: 1.71 min and 1.7 min
  Modified T-half (min), Average: <3.0 min
  Remarks (mouse microsomal stability study): Very fast metabolism; Low NCF
  mouse liver microsomes T-half: <3.0 min
[6]
  CC50 at 72 h: > 200 µM
[7]; [8]
  remaining at 1 h, 1 µM: 1%
[7]; [9]
  remaining at 1 h, 1 µM: 1.5%

## O=C1NC(=O)C(=C/C=C/c2ccccc2)C(=O)N1 [2i, (E)-5-(3-Phenylallylidene)pyrimidine-2,4,6(1H,3H,5H)-trione]
[1]
  solubility kinetic at 2 h: 41.4 µM (≈ 10 µg/mL)
  solubility at 2 h: 10 µg/mL (≈ 41.3 µM)
[2]
  EC50: 10.5 ± 3.5 µM
[2]; Leishmania braziliensis
  EC50: 11 ± 5 µM
In vitro [3]; pH 7.4
  microsomal CLint at 1 μM: > 578 µL/min/mg
In vitro [3]; [8]
  remaining at 5 min, 1 μM: 28.2%
  remaining at 10 min, 1 µM: 0%
  remaining at 20 min, 1 µM: 0%
  remaining at 0.5 h, 1 µM: 0%
  remaining at 1 h, 1 µM: 0%
In vitro [3]; [9]
  remaining at 5 min, 1 μM: 28.1%
  remaining at 10 min, 1 µM: 0%
  remaining at 20 min, 1 µM: 0%
  remaining at 0.5 h, 1 µM: 0%
  remaining at 1 h, 1 µM: 0%
In vitro [3]; [10]
  microsomal CLint at 1 μM: > 578 µL/min/mg
HsDHODH; 100 μM, with or without 4-h incubation
  inhibition of HsDHODH in single-dose assays: no inhibition
HsDHODH; [11]
  activity at 100 µM: 93 ± 11%
HsDHODH; [12]
  activity at 100 µM: 91 ± 9%
In vitro [4]; [13]
  recovery at 6 h, 10 µM: 14.3%
In vitro [4]; [14]
  recovery at 6 h, 10 µM: 15.8%
In vitro [4]; [15]
  recovery at 6 h, 10 µM: 15%
In vitro [4]
  Papp: 5.75 ×10⁻⁶ cm/s
  LogPe (cm/sec) n1: -5.25 cm/sec
  LogPe (cm/sec) n2: -5.23 cm/sec
  Pe (nm/sec) n=1: 56.6 nm/s and 56.58 nm/s
  % Recovery n=1: 14.26%
  Pe (nm/sec) n=2: 58.4 nm/s and 58.42 nm/s
  % Recovery n=2: 15.77%
In vitro [4]; average of n=2
  Avg Log Pe (cm/sec): -5.2 cm/sec and -5.24 cm/sec
  Avg Pe: 57.5 nm/s and 57.50 nm/s
[5]
  Calculated T-half (min), Average: 2.7 min
  Calculated T-half (min), n=1: 2.74 min and 2.7 min
  Calculated T-half (min), n=2: 2.73 min and 2.7 min
  Modified T-half (min), Average: <3.0 min
  Remarks (mouse microsomal stability study): Very fast metabolism; Low NCF
  mouse liver microsomes T-half: <3.0 min
[5]; replicate 1 (left block)
  Raw data: analyte peak area, T=0: 4760
  Raw data: analyte peak area, T=5: 1438
  Raw data: analyte peak area, T=10: 0
  Raw data: analyte peak area, T=20: 0
  Raw data: analyte peak area, T=30: 0
  Raw data: analyte peak area, T=60: 0
[5]; replicate 2 (right block)
  Raw data: analyte peak area, T=0: 4151
  Raw data: analyte peak area, T=5: 1160
  Raw data: analyte peak area, T=10: 0
  Raw data: analyte peak area, T=20: 0
  Raw data: analyte peak area, T=30: 0
  Raw data: analyte peak area, T=60: 0
[6]
  CC50 at 72 h: 193 ± 67 µM
[7]; replicate 1 (left block)
  Raw data: analyte peak area, T=60 NCF: 1230
[7]; replicate 2 (right block)
  Raw data: analyte peak area, T=60 NCF: 835
[7]; [8]
  remaining at 1 h, 1 µM: 26.3%
[7]; [9]
  remaining at 1 h, 1 µM: 19.3%
